From ChEMBL document CHEMBL2401634, “Discovery of novel indolinone-based, potent, selective and brain penetrant inhibitors of LRRK2” (Bioorg Med Chem Lett, 2013) come the findings set out here.

Values after ≈ are worked out from the molar mass of the structure shown. Active and inactive are the calls of the source. The calls are words filed in the database; no cut-off is given here.

Series [1] has as its target Proto-oncogene tyrosine-protein kinase receptor Ret (Homo sapiens, UniProt P07949). Kind of series: Inhibition of RET (unknown origin).
Series [2] deals with Vascular endothelial growth factor receptor 2 (Homo sapiens, UniProt P35968). Kind of series: Inhibition of KDR (unknown origin).
For series [3], the target named is Leucine-rich repeat serine/threonine-protein kinase 2 (Homo sapiens, UniProt Q5S007). Kind of series: Inhibition of human LRRK2 (1885 to 2132) using 5-Fluo-Ahx-RLGRDKYKTLRQIRQGNTK-OH as substrate after 60 mins by fluorescence assay.
The target in series [4] is Tyrosine-protein kinase Lck (Homo sapiens, UniProt P06239). Kind of series: Inhibition of LCK (unknown origin).
Sequence of Tyrosine-protein kinase Lck (P06239 whole entry): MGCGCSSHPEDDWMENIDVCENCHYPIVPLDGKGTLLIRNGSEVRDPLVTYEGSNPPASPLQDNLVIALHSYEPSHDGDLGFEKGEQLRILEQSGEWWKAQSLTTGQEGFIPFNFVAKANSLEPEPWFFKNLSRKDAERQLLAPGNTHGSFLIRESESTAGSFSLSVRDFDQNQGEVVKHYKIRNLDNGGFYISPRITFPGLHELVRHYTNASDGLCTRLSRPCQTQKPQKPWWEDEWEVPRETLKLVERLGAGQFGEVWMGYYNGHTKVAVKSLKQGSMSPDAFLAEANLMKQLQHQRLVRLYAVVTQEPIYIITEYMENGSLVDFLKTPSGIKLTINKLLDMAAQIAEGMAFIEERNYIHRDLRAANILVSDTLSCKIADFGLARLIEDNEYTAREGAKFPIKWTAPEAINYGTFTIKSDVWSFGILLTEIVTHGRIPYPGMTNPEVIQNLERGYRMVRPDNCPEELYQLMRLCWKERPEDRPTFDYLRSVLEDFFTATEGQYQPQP
In series [5] the target is ALK tyrosine kinase receptor (Homo sapiens, UniProt Q9UM73). Briefly: Inhibition of ALK (unknown origin).
Sequence of ALK tyrosine kinase receptor (Q9UM73 whole entry): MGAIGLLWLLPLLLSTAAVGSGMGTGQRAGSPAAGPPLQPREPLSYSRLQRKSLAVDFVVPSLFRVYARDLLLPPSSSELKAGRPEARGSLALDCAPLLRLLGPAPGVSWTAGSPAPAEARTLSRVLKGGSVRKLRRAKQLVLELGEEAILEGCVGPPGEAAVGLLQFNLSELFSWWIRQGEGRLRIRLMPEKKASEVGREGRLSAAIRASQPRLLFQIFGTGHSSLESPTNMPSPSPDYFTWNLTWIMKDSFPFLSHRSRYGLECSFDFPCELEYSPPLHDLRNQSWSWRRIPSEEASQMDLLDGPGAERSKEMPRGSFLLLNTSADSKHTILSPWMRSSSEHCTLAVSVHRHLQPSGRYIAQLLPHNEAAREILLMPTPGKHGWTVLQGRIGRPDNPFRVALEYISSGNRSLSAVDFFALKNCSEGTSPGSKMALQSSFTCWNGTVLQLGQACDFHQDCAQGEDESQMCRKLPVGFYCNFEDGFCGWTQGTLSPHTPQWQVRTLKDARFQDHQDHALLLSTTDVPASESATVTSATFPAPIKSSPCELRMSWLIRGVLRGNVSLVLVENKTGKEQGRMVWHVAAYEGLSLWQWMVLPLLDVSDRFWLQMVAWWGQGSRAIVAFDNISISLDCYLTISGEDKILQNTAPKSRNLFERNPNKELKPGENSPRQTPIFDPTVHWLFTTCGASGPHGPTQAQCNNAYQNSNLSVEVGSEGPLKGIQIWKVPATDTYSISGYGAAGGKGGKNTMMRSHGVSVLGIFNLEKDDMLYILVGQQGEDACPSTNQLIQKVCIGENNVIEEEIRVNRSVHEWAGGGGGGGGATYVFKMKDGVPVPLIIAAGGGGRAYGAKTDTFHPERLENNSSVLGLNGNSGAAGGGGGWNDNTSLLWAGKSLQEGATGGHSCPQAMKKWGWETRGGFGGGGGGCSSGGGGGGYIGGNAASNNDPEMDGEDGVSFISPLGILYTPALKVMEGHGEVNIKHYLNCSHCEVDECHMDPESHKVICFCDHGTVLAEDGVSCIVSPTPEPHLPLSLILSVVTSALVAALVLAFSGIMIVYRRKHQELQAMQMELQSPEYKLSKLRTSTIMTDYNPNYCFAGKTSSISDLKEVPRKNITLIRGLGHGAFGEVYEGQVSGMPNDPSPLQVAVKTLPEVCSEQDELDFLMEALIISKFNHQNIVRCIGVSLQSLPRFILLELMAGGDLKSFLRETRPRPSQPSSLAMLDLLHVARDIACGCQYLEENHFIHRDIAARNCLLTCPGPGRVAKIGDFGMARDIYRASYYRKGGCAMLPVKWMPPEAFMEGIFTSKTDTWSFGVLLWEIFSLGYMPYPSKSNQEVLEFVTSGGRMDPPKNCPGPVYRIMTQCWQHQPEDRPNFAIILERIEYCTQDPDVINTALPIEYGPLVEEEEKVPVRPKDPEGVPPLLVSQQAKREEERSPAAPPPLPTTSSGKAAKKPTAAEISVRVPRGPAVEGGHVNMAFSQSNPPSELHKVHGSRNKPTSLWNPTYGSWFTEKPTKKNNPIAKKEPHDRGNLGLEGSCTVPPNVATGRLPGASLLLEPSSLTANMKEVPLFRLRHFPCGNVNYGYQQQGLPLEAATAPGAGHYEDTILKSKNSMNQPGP
Series [6] has as its target Platelet-derived growth factor receptor alpha (Homo sapiens, UniProt P16234). Briefly: Inhibition of PDGFRa (unknown origin).
For series [7], the system named is Mus musculus. Briefly: Binding affinity to LRRK2 in C57BL/6 mouse brain at 10 to 180 mg/kg, po after 2 hrs by pull down assay relative to vehicle-treated control. It is filed as functional, organism-based.
Series [8] in a line: Solubility of the compound at pH 6.8. The class given is physicochemical. The conditions noted are these: buffer.
The target in series [9] is Leucine-rich repeat serine/threonine-protein kinase 2 (Mus musculus) (UniProt Q5S006). Kind of series: Binding affinity to LRRK2 in mouse C2C12 cells at 1 uM after 30 mins by competition pull down assay. It is filed as cell-based.
Series [10] has as its system Mus musculus. Briefly: Binding affinity to LRRK2 in po dosed C57BL/6 mouse brain after 2 hrs by pull down assay. It is filed as functional, organism-based.
Series [11] concerns Mus musculus. Kind of series: Binding affinity to LRRK2 in C57BL/6 mouse brain at 90 mg/kg, iv after 1 hr by pull down assay. The class given is functional, organism-based. Also noted: dose 90 mg/kg.
In series [12] the target is Leucine-rich repeat serine/threonine-protein kinase 2 (Mus musculus) (UniProt Q5S006). Briefly: Binding affinity to LRRK2 in C57BL/6 mouse brain at 1 uM after 30 mins by competition pull down assay. The class given is tissue-based.

Sequence of Platelet-derived growth factor receptor alpha (P16234 whole entry): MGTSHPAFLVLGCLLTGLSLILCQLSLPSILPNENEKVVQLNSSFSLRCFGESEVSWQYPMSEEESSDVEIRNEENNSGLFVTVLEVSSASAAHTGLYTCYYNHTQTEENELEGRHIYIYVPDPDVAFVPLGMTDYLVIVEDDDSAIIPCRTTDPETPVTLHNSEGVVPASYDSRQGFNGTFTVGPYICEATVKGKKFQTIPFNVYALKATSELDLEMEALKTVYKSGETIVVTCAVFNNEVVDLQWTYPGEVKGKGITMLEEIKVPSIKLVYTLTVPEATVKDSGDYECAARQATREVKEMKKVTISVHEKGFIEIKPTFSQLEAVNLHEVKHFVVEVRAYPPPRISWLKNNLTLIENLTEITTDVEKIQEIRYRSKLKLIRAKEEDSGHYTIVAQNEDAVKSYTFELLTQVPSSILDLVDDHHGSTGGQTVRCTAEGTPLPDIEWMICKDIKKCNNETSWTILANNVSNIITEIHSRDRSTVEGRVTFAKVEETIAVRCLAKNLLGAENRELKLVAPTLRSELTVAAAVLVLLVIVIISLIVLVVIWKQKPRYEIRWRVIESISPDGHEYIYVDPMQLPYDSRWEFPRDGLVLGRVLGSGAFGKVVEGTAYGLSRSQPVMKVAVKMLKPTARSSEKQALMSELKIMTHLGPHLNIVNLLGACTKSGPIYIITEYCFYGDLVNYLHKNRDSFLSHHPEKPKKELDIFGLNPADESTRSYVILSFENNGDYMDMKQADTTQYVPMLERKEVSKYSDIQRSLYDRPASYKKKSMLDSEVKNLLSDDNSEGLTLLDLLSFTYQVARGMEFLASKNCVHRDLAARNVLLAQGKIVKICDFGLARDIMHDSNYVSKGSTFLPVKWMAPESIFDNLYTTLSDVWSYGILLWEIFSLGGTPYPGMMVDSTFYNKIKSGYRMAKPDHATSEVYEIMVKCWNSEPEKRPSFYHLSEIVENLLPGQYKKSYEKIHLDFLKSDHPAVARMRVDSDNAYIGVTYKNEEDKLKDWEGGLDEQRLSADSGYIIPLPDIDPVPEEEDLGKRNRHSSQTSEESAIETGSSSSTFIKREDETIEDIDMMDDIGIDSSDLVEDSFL
Sequence of Proto-oncogene tyrosine-protein kinase receptor Ret (P07949 whole entry): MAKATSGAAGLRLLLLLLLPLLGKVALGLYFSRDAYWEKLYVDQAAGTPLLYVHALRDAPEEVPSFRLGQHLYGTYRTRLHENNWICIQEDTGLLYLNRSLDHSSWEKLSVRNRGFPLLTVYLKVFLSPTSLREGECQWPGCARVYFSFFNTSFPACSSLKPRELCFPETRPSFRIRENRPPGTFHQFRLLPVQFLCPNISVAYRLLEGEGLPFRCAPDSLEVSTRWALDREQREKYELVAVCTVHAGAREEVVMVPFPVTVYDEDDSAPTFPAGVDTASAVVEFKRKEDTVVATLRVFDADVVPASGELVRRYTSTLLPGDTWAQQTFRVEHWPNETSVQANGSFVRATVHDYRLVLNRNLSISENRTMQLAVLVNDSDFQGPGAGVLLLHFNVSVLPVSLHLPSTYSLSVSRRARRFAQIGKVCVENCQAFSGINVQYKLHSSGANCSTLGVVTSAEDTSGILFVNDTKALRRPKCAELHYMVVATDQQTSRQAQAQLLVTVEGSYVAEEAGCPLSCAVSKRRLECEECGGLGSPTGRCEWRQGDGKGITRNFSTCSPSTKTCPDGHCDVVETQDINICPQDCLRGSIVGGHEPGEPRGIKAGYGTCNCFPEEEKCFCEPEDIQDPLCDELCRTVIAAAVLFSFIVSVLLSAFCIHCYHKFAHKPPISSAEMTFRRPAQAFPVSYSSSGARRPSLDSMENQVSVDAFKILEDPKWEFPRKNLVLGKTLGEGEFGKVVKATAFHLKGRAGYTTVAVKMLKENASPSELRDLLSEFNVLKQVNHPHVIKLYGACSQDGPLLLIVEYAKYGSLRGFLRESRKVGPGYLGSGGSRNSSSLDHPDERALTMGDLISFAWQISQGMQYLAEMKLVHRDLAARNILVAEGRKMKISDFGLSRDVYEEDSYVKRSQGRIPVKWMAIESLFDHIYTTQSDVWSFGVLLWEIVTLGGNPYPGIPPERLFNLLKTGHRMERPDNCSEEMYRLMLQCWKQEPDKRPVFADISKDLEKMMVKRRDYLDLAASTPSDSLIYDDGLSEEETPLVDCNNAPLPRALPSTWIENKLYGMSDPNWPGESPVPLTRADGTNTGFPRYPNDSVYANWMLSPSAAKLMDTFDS

Regarding `COc1ccc2c(c1)/C(=C/c1[nH]c3c(c1Cl)CN(C(C)=O)CC3)C(=O)N2`, the half-inhibitory concentration (IC50) in series [1] is 34 nM; in [2], 87 nM; in series [3], 8 nM; in [4], 1100 nM; in series [5], more than 10000 nM.

As for `CN1CCC(Nc2ccc3c(c2)/C(=C/c2cc4c([nH]2)CCN(C(=O)N2CCOCC2)C4)C(=O)N3)CC1`, the half-maximal inhibitory concentration (IC50) in [1] was 5 nM; in [2], 3 nM; in [3] it was less than 3 nM; in series [4], 7 nM; in series [5] it was 76 nM; in series [6] it was 13 nM.

With `CC(=O)N1CCc2[nH]c(/C=C3\C(=O)Nc4ccc([N+](=O)[O-])cc43)cc2C1`, the IC50 is 73 nM in [1]; 60 nM in series [2]; less than 3 nM in series [3]; 1000 nM in series [4]; more than 10000 nM in series [5]; 31 nM in series [6].

Turning to `COc1ccc2c(c1)/C(=C/c1[nH]c(C)c(C(=O)NCCCN)c1C)C(=O)N2`, the IC50 in [1] is less than 1000 nM; in series [2] it was less than 1000 nM; in series [3], 46 nM; in [4], less than 1000 nM; in [5], less than 1000 nM; in series [6], less than 1000 nM.

With `O=C1Nc2ccc(C(F)(F)F)cc2/C1=C/c1cc2c([nH]1)CCN(C(=O)N1CCOCC1)C2`, the IC50 in [1] was 140 nM; in series [2] it was 83 nM; in series [3] it was less than 3 nM; in [4], 180 nM; in series [5], more than 10000 nM; in series [6] it was 46 nM.

Take `COc1ccc2c(c1)/C(=C/c1cc3c([nH]1)CCN(C(=O)N1CCOCC1)C3)C(=O)N2`: the IC50 in [1] was 25 nM; in [2], 5 nM; in series [3], 3 nM; in [4] it was 120 nM; in series [5], 660 nM; in [6] it was 150 nM.

As for `COc1ccc2c(c1)/C(=C/c1cc3c([nH]1)CCN(C(=O)N1CCN(C)CC1)C3)C(=O)N2`, the result in [7], in series [9] and in series [12] was Active. Also, the solubility in series [8] is 15 µg/mL (≈ 35.6 µM). For the same compound, in series [10], the Activity result is “Dose-dependent effect”. The outcome in [11] was inactive. Moreover, the IC50 in [1] amounted to 6 nM; in series [2], 6 nM; in series [3], 9 nM; in series [4] it was 50 nM; in series [5], 550 nM; in [6], 60 nM.

As to `CC(=O)N1CCc2[nH]c(/C=C3\C(=O)Nc4ccc(C(F)(F)F)cc43)cc2C1`, the IC50 in [1] came out at 300 nM; in series [2] it was 320 nM; in series [3], 31 nM; in [4], 360 nM; in series [5] it was 9500 nM; in series [6], 60 nM.

On to `COc1ccc2c(c1)/C(=C/c1cc3c([nH]1)CCN(C(C)=O)C3)C(=O)N2`, for which the IC50 in series [1] stood at 54 nM; in series [2] it was 210 nM; in series [3] it was 14 nM; in series [4] it was 6050 nM; in [5] it was 1500 nM; in series [6], 250 nM.

As to `COc1ccc2c(c1)/C(=C/c1cc3c([nH]1)CCN(C(=O)N1CCOCC1)C3)C(=O)N2C`, it took 150 nM to reach half-maximal inhibition in [3] (IC50).

`CC(=O)N1CCc2[nH]c(/C=C3\C(=O)Nc4ccc(OC(C)C)cc43)cc2C1`: the solubility in [8] was less than 1 µg/mL. Also, the IC50 was 150 nM in series [1]; 900 nM in series [2]; 4 nM in series [3]; 1100 nM in [4]; 3300 nM in series [5]; 1700 nM in series [6].

For the compound `COc1ccc2c(c1)/C(=C/c1cc3c([nH]1)CCN(C(=O)CCN)C3)C(=O)N2`, the IC50 is 4 nM in [1]; 8 nM in series [2]; 11 nM in series [3]; 140 nM in series [4]; 370 nM in [5]; 120 nM in series [6].

Consider `COc1ccc2c(c1)/C(=C/c1cc3c([nH]1)CCN(C(=O)c1cnoc1C)C3)C(=O)N2`, for which the IC50 worked out at 75 nM in series [1]; 16 nM in series [2]; 7 nM in [3]; 390 nM in series [4]; 1400 nM in [5]; 540 nM in [6].

Consider `CC(=O)Nc1ccc2c(c1)/C(=C/c1cc3c([nH]1)CCN(C(=O)N1CCOCC1)C3)C(=O)N2`, for which the IC50 in [1] turned out to be 25 nM; in [2] it was 7 nM; in series [3], 4 nM; in series [4], 330 nM; in series [5], 210 nM; in [6], 91 nM.

`CC(=O)N1CCc2[nH]c(/C=C3\C(=O)Nc4ccc(C#N)cc43)cc2C1`: the IC50 in series [1] is 4 nM; in series [2], 20 nM; in series [3] it was 7 nM; in [4], 120 nM; in series [5], 1600 nM; in [6], less than 3 nM.

As a reminder, the IC50 is the concentration at which inhibition is half-maximal. A low value points to greater potency in that assay. What is called solubility is the concentration that dissolves in the medium under given conditions. A lower solubility goes with a poorly soluble substance.
